Legend:
[1] = target: T1, Peroxisome proliferator-activated receptor delta (Homo sapiens, UniProt Q03181); assay: Effective concentration for human peroxisome proliferator-activated receptor delta
T1 sequence (Q03181 whole entry): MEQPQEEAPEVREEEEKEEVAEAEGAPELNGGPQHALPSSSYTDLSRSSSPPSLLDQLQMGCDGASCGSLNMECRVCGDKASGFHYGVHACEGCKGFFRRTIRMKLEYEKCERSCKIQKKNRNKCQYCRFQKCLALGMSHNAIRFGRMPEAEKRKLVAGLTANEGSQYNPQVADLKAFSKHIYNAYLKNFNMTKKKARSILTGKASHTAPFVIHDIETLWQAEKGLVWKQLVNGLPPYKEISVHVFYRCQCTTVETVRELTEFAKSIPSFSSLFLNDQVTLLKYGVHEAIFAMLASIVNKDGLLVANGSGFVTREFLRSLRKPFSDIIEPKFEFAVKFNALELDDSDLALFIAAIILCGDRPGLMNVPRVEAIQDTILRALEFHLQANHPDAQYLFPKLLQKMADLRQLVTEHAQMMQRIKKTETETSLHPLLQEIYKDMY

[2] = target: T2, Peroxisome proliferator-activated receptor alpha (Homo sapiens, UniProt Q07869); assay: Effective concentration for human peroxisome proliferator-activated receptor alpha
T2 sequence (Q07869 whole entry): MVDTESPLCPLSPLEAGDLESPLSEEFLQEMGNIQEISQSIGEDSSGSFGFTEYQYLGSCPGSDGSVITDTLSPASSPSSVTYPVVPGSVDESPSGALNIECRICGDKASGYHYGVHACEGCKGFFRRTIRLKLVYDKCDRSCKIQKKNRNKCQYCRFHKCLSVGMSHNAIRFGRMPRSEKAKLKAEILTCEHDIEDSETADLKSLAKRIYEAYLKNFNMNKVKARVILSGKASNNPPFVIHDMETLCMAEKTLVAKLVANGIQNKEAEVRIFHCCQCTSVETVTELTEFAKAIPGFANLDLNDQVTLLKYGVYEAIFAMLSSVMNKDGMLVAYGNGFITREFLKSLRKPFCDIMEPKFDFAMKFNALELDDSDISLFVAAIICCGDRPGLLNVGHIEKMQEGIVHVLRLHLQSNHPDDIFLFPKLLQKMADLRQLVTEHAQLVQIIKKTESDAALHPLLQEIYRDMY

| SMILES | EC50 [1] | EC50 [2] |
| --- | --- | --- |
| CCO[C@H](Cc1ccc(OC/C=C(/C)C#Cc2ccc(-c3ccc(C#C/C(C)=C/COc4ccc(C[C@@H](OCC)C(=O)O)cc4)cc3)cc2)cc1)C(=O)O | 4.1 µM | 1.8 µM |
| CCOC(Cc1ccc(OC/C=C/c2ccccc2)cc1)C(=O)O (single isomer, unassigned) | 18 µM | 1.6 µM |
| CCOC(Cc1ccc(OCC/C=C/c2ccccc2)cc1)C(=O)O (single isomer, unassigned) | 19 µM | 1.1 µM |
| CCOC(Cc1ccc(OCC#CCOc2ccc(C[C@@H](OCC)C(=O)O)cc2)cc1)C(=O)O (single isomer, unassigned) |  | 9.6 µM |
| CCOC(Cc1ccc(OC/C=C(\C)C#Cc2ccc(C#C/C(C)=C/COc3ccc(C[C@@H](OCC)C(=O)O)cc3)cc2)cc1)C(=O)O (single isomer, unassigned) | 1.8 µM | 1.2 µM |
| CCOC(Cc1ccc(OC/C=C/C#CC#C/C=C/COc2ccc(C[C@@H](OCC)C(=O)O)cc2)cc1)C(=O)O (single isomer, unassigned) | 15 µM | 3.7 µM |
| CCOC(Cc1ccc(OC/C=C/C#Cc2ccc(C#C/C=C/COc3ccc(C[C@@H](OCC)C(=O)O)cc3)cc2)cc1)C(=O)O (single isomer, unassigned) | 2.2 µM | 0.7 µM |
| CCO[C@H](Cc1ccc(OC/C=C(\C)C#Cc2ccc3c(c2)C(=O)c2cc(C#C/C(C)=C/COc4ccc(C[C@@H](OCC)C(=O)O)cc4)ccc2-3)cc1)C(=O)O (stereo in doubt) |  | 2.3 µM |
| CCO[C@@H](Cc1ccc(OCc2ccc(COc3ccc(C[C@H](OCC)C(=O)O)cc3)cc2)cc1)C(=O)O |  | 15 µM |
| CCO[C@@H](Cc1ccc(OC/C=C(/C)C#Cc2ccccc2)cc1)C(=O)O | 11 µM | 0.3 µM |
| CCO[C@H](Cc1ccc(OC/C=C/C#Cc2ccccc2)cc1)C(=O)O | 6.9 µM | 0.07 µM |
| CCO[C@H](Cc1ccc(OC/C=C(\C)c2ccc(-c3ccc(/C(C)=C/COc4ccc(C[C@@H](OCC)C(=O)O)cc4)cc3)cc2)cc1)C(=O)O | 2.1 µM | 6.7 µM |
